Patent US20230167118A1, “DEGRADATION OF BRUTON'S TYROSINE KINASE (BTK) BY CONJUGATION OF BTK INIDBITORS WITH E3 LIGASE LIGAND AND METHODS OF USE” (BEIGENE, LTD., priority 2020, published 2023)

Columns and labels:
BTK = target: T1, BTK (Homo sapiens, UniProt Q06187); assay: Cell Degradation: BTK degradation in TMD-8 cells, HTRF assay; assay type: cell-based; conditions: 6 h treatment, IC50 (DC50) of BTK degradation
T1 construct: High control=Cell group with added DMSO and without compound, indicating microplate readings without BTK degradation; endogenous in cells; host or cells: TMD-8 cells
Method in brief: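 TMD-8 cells treated 6 h with 8-dose 6-fold dilutions in 0.2% DMSO, then lysed and BTK quantified by HTRF (665/620 nm). Degradation % normalised to high/low controls; DC50 from four-parameter fit, Dmax as maximal degradation.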

HEK-293 cells = assay: HEK-293 Cytotoxicity Assay (CellTiter-Glo); assay type: cell-based; conditions: Homo sapiens, HEK293, 72 h incubation, CellTiter-Glo luminescence
Method in brief: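 HEK-293 cells treated 72 h with 8 concentrations (4-fold dilutions, 0.2% DMSO final). Viability read by CellTiter-Glo luminescence; IC50 from four-parameter logistic fit of % inhibition.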

T1 sequence (Q06187 whole entry): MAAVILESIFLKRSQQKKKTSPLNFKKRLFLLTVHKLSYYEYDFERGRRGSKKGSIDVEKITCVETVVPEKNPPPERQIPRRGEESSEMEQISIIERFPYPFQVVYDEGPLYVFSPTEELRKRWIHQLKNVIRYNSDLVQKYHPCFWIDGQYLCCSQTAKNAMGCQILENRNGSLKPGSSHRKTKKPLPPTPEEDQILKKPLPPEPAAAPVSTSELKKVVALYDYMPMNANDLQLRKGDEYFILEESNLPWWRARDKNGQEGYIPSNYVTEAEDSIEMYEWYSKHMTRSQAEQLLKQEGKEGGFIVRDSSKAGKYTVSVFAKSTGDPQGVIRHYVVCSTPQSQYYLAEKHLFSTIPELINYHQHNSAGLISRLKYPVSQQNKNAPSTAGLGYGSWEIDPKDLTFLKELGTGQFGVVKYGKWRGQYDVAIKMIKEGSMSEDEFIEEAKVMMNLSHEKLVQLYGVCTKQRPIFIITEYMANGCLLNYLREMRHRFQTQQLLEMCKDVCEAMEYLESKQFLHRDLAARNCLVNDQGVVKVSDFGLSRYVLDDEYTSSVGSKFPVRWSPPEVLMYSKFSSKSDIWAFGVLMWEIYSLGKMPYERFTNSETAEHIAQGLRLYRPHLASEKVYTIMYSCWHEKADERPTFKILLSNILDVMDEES

SMILES | DC50 (BTK) | IC50 (HEK-293 cells)
Cc1cc(N2CCC(CN3CCN(c4ccc(-c5cc6c(-c7ccc([C@@H](C)NC(=O)c8noc(C(C)(C)C)n8)c(CO)c7)ncnc6[nH]5)nc4)CC3)CC2)ccc1N1CCC(=O)NC1=O [Example 137, (R)-5-(tert-butyl)-N-(1-(4-(6-(5-(4-((1-(4-(2,4-dioxotetrahydropyrimidin-1(2H)-yl)-3-methylphenyl)piperidin-4-yl)methyl)piperazin-1-yl)pyridin-2-yl)-7H-pyrrolo[2,3-d]pyrimidin-4-yl)-2-(hydroxymethyl)phenyl)ethyl)-1,2,4-oxadiazole-3-carboxamide] | 0.23 nM | > 10000 nM
Cc1nn(C2CCN(CC3CCN(c4ccc(N5CCC(=O)NC5=O)cc4)CC3)CC2)c(C)c1-c1cc2c(-c3ccc([C@@H](C)NC(=O)c4nc(C(C)(C)C)no4)c(CO)c3)ncnc2[nH]1 [Example 138, (R)-3-(tert-butyl)-N-(1-(4-(6-(1-(1-((1-(4-(2,4-dioxotetrahydropyrimidin-1(2H)-yl)phenyl)piperidin-4-yl)methyl)piperidin-4-yl)-3,5-dimethyl-1H-pyrazol-4-yl)-7H-pyrrolo[2,3-d]pyrimidin-4-yl)-2-(hydroxymethyl)phenyl)ethyl)-1,2,4-oxadiazole-5-carboxamide] | 0.29 nM | 1860 nM
Cc1nn(C2CCN(CC3CCN(c4ccc(N5CCC(=O)NC5=O)cc4)CC3)CC2)c(C)c1-c1cc2c(-c3cc(CO)c([C@@H](C)NC(=O)c4nc(C(C)(C)C)no4)cc3F)ncnc2[nH]1 [Example 139, (R)-3-(tert-butyl)-N-(1-(4-(6-(1-(1-((1-(4-(2,4-dioxotetrahydropyrimidin-1(2H)-yl)phenyl)piperidin-4-yl)methyl)piperidin-4-yl)-3,5-dimethyl-1H-pyrazol-4-yl)-7H-pyrrolo[2,3-d]pyrimidin-4-yl)-5-fluoro-2-(hydroxymethyl)phenyl)ethyl)-1,2,4-oxadiazole-5-carboxamide] | 0.5 nM | > 10000 nM
Cc1c([C@@H](C)NC(=O)c2noc(C(C)(C)C)n2)ccc(-c2ncnc3[nH]c(-c4ccc(N5CCN(CC6CCN(c7ccc(N8CCC(=O)NC8=O)cc7)CC6)CC5)nc4)cc23)c1F [Example 140, (R)-5-(tert-butyl)-N-(1-(4-(6-(6-(4-((1-(4-(2,4-dioxotetrahydropyrimidin-1(2H)-yl)phenyl)piperidin-4-yl)methyl)piperazin-1-yl)pyridin-3-yl)-7H-pyrrolo[2,3-d]pyrimidin-4-yl)-3-fluoro-2-methylphenyl)ethyl)-1,2,4-oxadiazole-3-carboxamide] | 1.24 nM | > 10000 nM
Cc1cc(N2CCC(CN3CCN(c4ccc(-c5cc6c(-c7ccc([C@@H](C)NC(=O)c8noc(C(C)(C)C)n8)c(C)c7F)ncnc6[nH]5)cn4)CC3)CC2)ccc1N1CCC(=O)NC1=O [Example 141, (R)-5-(tert-butyl)-N-(1-(4-(6-(6-(4-((1-(4-(2,4-dioxotetrahydropyrimidin-1(2H)-yl)-3-methylphenyl)piperidin-4-yl)methyl)piperazin-1-yl)pyridin-3-yl)-7H-pyrrolo[2,3-d]pyrimidin-4-yl)-3-fluoro-2-methylphenyl)ethyl)-1,2,4-oxadiazole-3-carboxamide] | 1.23 nM | > 10000 nM
Cc1cc(-c2ncnc3[nH]c(-c4ccc(N5CCN(CC6CCN(c7ccc(N8CCC(=O)NC8=O)cc7)CC6)CC5)nc4)c(F)c23)ccc1[C@@H](C)NC(=O)c1nc(C(C)(C)C)no1 [Example 142, (R)-3-(tert-butyl)-N-(1-(4-(6-(6-(4-((1-(4-(2,4-dioxotetrahydropyrimidin-1(2H)-yl)phenyl)piperidin-4-yl)methyl)piperazin-1-yl)pyridin-3-yl)-5-fluoro-7H-pyrrolo[2,3-d]pyrimidin-4-yl)-2-methylphenyl)ethyl)-1,2,4-oxadiazole-5-carboxamide] | 2.99 nM | > 10000 nM
Cc1cc(-c2ncnc3[nH]c(-c4ccc(N5CCN(CC6CCN(c7ccc(C8CCC(=O)NC8=O)cc7)C6)CC5)cc4)cc23)ccc1[C@@H](C)NC(=O)c1nc(C(C)(C)C)no1 (stereo partly drawn) [Example 143, 3-(tert-butyl)-N-((1R)-1-(4-(6-(4-(4-((1-(4-(2,6-dioxopiperidin-3-yl)phenyl)pyrrolidin-3-yl)methyl)piperazin-1-yl)phenyl)-7H-pyrrolo[2,3-d]pyrimidin-4-yl)-2-methylphenyl)ethyl)-1,2,4-oxadiazole-5-carboxamide] | 8.42 nM | > 10000 nM

More lines, main results first:

DC50 (BTK) | SMILES | IC50 (HEK-293 cells)
0.26 nM | C[C@@H](NC(=O)c1noc(C(C)(C)C)n1)c1ccc(-c2ncnc3[nH]c(-c4ccc(N5CCN(CC6CCN(c7ccc(N8CCC(=O)NC8=O)cc7)CC6)CC5)nc4)cc23)cc1CO [Example 144, (R)-5-(tert-butyl)-N-(1-(4-(6-(6-(4-((1-(4-(2,4-dioxotetrahydropyrimidin-1(2H)-yl)phenyl)piperidin-4-yl)methyl)piperazin-1-yl)pyridin-3-yl)-7H-pyrrolo[2,3-d]pyrimidin-4-yl)-2-(hydroxymethyl)phenyl)ethyl)-1,2,4-oxadiazole-3-carboxamide] | > 10000 nM
0.27 nM | Cc1cc(N2CCC(CN3CCN(c4ccc(-c5cc6c(-c7ccc([C@@H](C)NC(=O)c8noc(C(C)(C)C)n8)c(CO)c7)ncnc6[nH]5)cn4)CC3)CC2)ccc1N1CCC(=O)NC1=O [Example 145, (R)-5-(tert-butyl)-N-(1-(4-(6-(6-(4-((1-(4-(2,4-dioxotetrahydropyrimidin-1(2H)-yl)-3-methylphenyl)piperidin-4-yl)methyl)piperazin-1-yl)pyridin-3-yl)-7H-pyrrolo[2,3-d]pyrimidin-4-yl)-2-(hydroxymethyl)phenyl)ethyl)-1,2,4-oxadiazole-3-carboxamide] | > 10000 nM
> 2000 nM | Cc1cc(-c2ncnc3[nH]c(-c4ccc(N5CCN(CC6CCN(c7ccc(N8CCC(=O)N(C)C8=O)cc7)CC6)CC5)nc4)cc23)ccc1[C@@H](C)NC(=O)c1nc(C(C)(C)C)no1 [Example 146, (R)-3-(tert-butyl)-N-(1-(2-methyl-4-(6-(6-(4-((1-(4-(3-methyl-2,4-dioxotetrahydropyrimidin-1(2H)-yl)phenyl)piperidin-4-yl)methyl)piperazin-1-yl)pyridin-3-yl)-7H-pyrrolo[2,3-d]pyrimidin-4-yl)phenyl)ethyl)-1,2,4-oxadiazole-5-carboxamide] | > 10000 nM
52.7 nM | Cc1cc(-c2ncnc3[nH]c(-c4ccc(N5CCN(CC6CCN(c7ccc(N8CCC(=O)NC8=O)cc7)CC6)CC5)cn4)cc23)ccc1[C@H](C)NC(=O)c1nc(C(C)(C)C)no1 [Example 147, (S)-3-(tert-butyl)-N-(1-(4-(6-(5-(4-((1-(4-(2,4-dioxotetrahydropyrimidin-1(2H)-yl)phenyl)piperidin-4-yl)methyl)piperazin-1-yl)pyridin-2-yl)-7H-pyrrolo[2,3-d]pyrimidin-4-yl)-2-methylphenyl)ethyl)-1,2,4-oxadiazole-5-carboxamide] | > 10000 nM
134 nM | Cc1cc(-c2ncnc3[nH]c(-c4ccc(N5CCN(CC6CCN(c7ccc(N8CCC(=O)NC8=O)cc7)CC6)CC5)nc4)cc23)ccc1[C@H](C)NC(=O)c1nc(C(C)(C)C)no1 [Example 148, (S)-3-(tert-butyl)-N-(1-(4-(6-(6-(4-((1-(4-(2,4-dioxotetrahydropyrimidin-1(2H)-yl)phenyl)piperidin-4-yl)methyl)piperazin-1-yl)pyridin-3-yl)-7H-pyrrolo[2,3-d]pyrimidin-4-yl)-2-methylphenyl)ethyl)-1,2,4-oxadiazole-5-carboxamide] | 278 nM
0.27 nM | Cc1nn(C2CCN(CC3CCN(c4ccc(N5CCC(=O)NC5=O)cc4)CC3)CC2)c(C)c1-c1cc2c(-c3cc(CO)c([C@@H](C)NC(=O)c4noc(C(C)(C)C)n4)cc3F)ncnc2[nH]1 [Example 149, (R)-5-(tert-butyl)-N-(1-(4-(6-(1-(1-((1-(4-(2,4-dioxotetrahydropyrimidin-1(2H)-yl)phenyl)piperidin-4-yl)methyl)piperidin-4-yl)-3,5-dimethyl-1H-pyrazol-4-yl)-7H-pyrrolo[2,3-d]pyrimidin-4-yl)-5-fluoro-2-(hydroxymethyl)phenyl)ethyl)-1,2,4-oxadiazole-3-carboxamide] | > 10000 nM
1.64 nM | CC(C)(C)c1noc(C(=O)N[C@@H]2CCc3cc(-c4ncnc5[nH]c(-c6ccc(N7CCN(CC8CCN(c9ccc(N%10CCC(=O)NC%10=O)cc9)CC8)CC7)cn6)cc45)ccc32)n1 [Example 150, (R)-3-(tert-butyl)-N-(5-(6-(5-(4-((1-(4-(2,4-dioxotetrahydropyrimidin-1(2H)-yl)phenyl)piperidin-4-yl)methyl)piperazin-1-yl)pyridin-2-yl)-7H-pyrrolo[2,3-d]pyrimidin-4-yl)-2,3-dihydro-1H-inden-1-yl)-1,2,4-oxadiazole-5-carboxamide] | > 10000 nM
3.24 nM | CC(C)(C)c1noc(C(=O)N[C@@H]2CCc3cc(-c4ncnc5[nH]c(-c6ccc(N7CCN(CC8CCN(c9ccc(N%10CCC(=O)NC%10=O)cc9)CC8)CC7)nc6)cc45)ccc32)n1 [Example 151, (R)-3-(tert-butyl)-N-(5-(6-(6-(4-((1-(4-(2,4-dioxotetrahydropyrimidin-1(2H)-yl)phenyl)piperidin-4-yl)methyl)piperazin-1-yl)pyridin-3-yl)-7H-pyrrolo[2,3-d]pyrimidin-4-yl)-2,3-dihydro-1H-inden-1-yl)-1,2,4-oxadiazole-5-carboxamide] | > 10000 nM
